These are literature values, as cited in patent publication US20230151225A1, “BLENDING ZINC […] BASE MATERIALS IN ORDER TO CREATE QUICKLY APPLIED ANTI-MICROBIAL SURFACES” (CAO Group, Inc., priority 2020, published 2023).

Regarding zinc pyrithione, the solubility in water is on record as 8 ppm.
